Experimental findings from US20240000786A1, “COMPOSITION FOR ENHANCING INTRA-CELLULAR NITRIC OXIDE GENERATION” (INSTITUTE OF LIFE SCIENCES, priority 2020, published 2024) are described below.

Peptide text beside a SMILES is read from it.

Assay [1] addresses T1, iNOS-NOSIP protein interaction (Homo sapiens, UniProt Q9Y314).
T1 construct: made in house; host or cells: E. coli BL21 (DE3)
T1 sequence (Q9Y314 with tags, fused parts or gaps): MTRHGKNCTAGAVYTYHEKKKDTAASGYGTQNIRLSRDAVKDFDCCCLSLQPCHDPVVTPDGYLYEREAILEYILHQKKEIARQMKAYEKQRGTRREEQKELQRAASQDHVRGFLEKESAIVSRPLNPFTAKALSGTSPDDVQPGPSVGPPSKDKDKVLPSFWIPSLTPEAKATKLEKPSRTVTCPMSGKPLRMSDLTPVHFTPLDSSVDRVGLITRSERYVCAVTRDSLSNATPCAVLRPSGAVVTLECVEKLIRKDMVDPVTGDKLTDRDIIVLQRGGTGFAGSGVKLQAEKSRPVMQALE
In words: SPR: inhibition of rNOSIP association with immobilized recombinant iNOS by iNOS peptides / small molecules. In kind it is binding. Particulars: for inhibition hierarchy of iNOS-NOSIP protein interaction: SPR, rank order; for kon / Kd: analyte rNOSIP alone or + peptide/small molecule, ligand r iNOS, 20° C.; for kon: 1:1 Langmuir, read-out: Ka; for Kd: Kd/Ka; for inhibition of binding of NOSIP with iNOS ligand by small molecules: rNOSIP 250 nM, small molecules 1 uM, SPR (FIG. 4); for inhibition of iNOS-NOSIP protein interaction by iNOS derived peptides: iNOS peptides 250 nM, proteins 125 nM, SPR (FIG. 2(a)). On the procedure:
Four different iNOS peptides were synthesized commercially by China peptides and iNOS peptides were used for molecular interaction studies with immobilized recombinant iNOS purified protein. The iNOS peptides mediated inhibition of rNOSIP and riNOS protein association in Bio-Rad XPR 36 surface plasmon resonance biosensor instrument. […] 250 nM of iNOS peptides was used for inhibition assay with immobilized ligand(recombinant iNOS) in SPR analysis. Similar condition and concentration of small molecules were used for inhibition of recombinant protein association with immobilized ligand. […] The rNOSIP protein was incubated with iNOS derived peptide/small molecules for 30 minutes in ice for inhibition assay before the SPR application in our study. The molecular interaction was carried out at 20° C. and kinetic parameters were determined, after fitting the association and dissociation curves to a 1:1 (Langmuir)-binding model. An activated channel without immobilized ligand was used to evaluate nonspecific binding. The response curves were also recorded on control surfaces. Results were calculated after subtraction of the control values using the ProteOn Manager software.
The collected sensorgram data were processed by reference subtraction using double-referencing with the in-line blank buffer. The integrated ProteOn Manager software was used to fit the data with the Langmuir model describing a 1:1 binding stoichiometry. Ka is the association rate constant, Kd is the dissociation rate constant, and KD is the equilibrium dissociation constant, defined by the Kd/Ka ratio for the analytes-ligand binding.
The five small molecules bind with NOSIP and inhibit the association of recombinant NOSIP and recombinant iNOS. The rNOSIP protein was incubated with iNOS derived peptide or small molecules for 30 minutes in ice prior to SPR application. The molecular interaction was carried out at 20° C. and kinetic parameters were determined, after fitting the association and dissociation curves to a 1:1 (Langmuir)-binding model. An activated channel without immobilized ligand (recombinant iNOS) was used to evaluate nonspecific binding. The response curves were also recorded on control surfaces. Results were calculated after subtraction of the control values using the ProteOn Manager software.
The collected sensorgram data were processed by reference subtraction using double-referencing with the in-line blank buffer. The integrated ProteOn
Manager software was used to fit the data with the Langmuir model describing a 1:1 binding stoichiometry. Ka is the association rate constant, Kd is the dissociation rate constant, and KD is the equilibrium dissociation constant, defined by the Kd/Ka ratio for the analytes—ligand binding.
A general note: Surface plasmon resonance follows binding to a sensor surface in real time, without labels.

Assay [2] concerns the target T2, rNOSIP (Homo sapiens, UniProt Q9Y314).
T2 construct: made in house; host or cells: E. coli BL21 (DE3)
T2 sequence (Q9Y314 with tags, fused parts or gaps): T1 sequence (Q9Y314 with tags, fused parts or gaps)
In words: Isothermal titration calorimetry (ITC) of rNOSIP with small molecules / 18 mer iNOS peptide (PP2). In kind it is binding. The conditions noted are these: for Fold Change (KD): ITC KD relative to iNOS-Peptide2 = 1; for SM binding affinity with NOSIP, hierarchy: ITC, rank order. On the procedure:
The 18 mer iNOS peptide (PP2) and small molecules were used for physical association of molecules in calorimetric analysis. The molecular association leads to thermodynamics changes such as Gibb's free energy change (ΔG), entropy change (ΔS), enthalpy change (ΔH) and number of binding sites (N) in interacting solution were investigated by isothermal calorimetry MICROCAL PEQ (Malvern) at 25° C. […] The experiment consisted of multiple injections and each injection contained 1.5 μl of binding solution (recombinant NOSIP solution) with 120 second spacing time between subsequent injections. Sequential titrations were carried out and the sample solution was continuously stirred at 270 rpm by the rotating paddle attached to the syringe needle. Multiple injections of NOSIP made into the sample cell containing interacting solution of peptide and small molecules. The titration curves were analyzed using the analysis software provided with the calorimeter.
The 18 mer iNOS peptide (PP2) and five small molecules were used to analyze physical association in calorimetric analysis. The molecular association leads to thermodynamics changes such as Gibb's free energy change (ΔG), entropy change (ΔS), enthalpy change (ΔH) and number of binding sites (N) in interacting solution were investigated by isothermal calorimetry MICROCAL PEQ (Malvern) at 25° C. […] The experiment consisted of multiple injections and each injection contained 1.5 μl of binding solution with 120 second spacing time between subsequent injections. Sequential titrations were carried out and the sample solution was continuously stirred at 270 rpm by the rotating paddle attached to the syringe needle. Multiple injections of NOSIP made into the sample cell containing interacting solution of peptide and small molecules. The titration curves were analyzed using the analysis software provided with the calorimeter.

Setting [3] is: ITC 25° C., small molecule/peptide in cell, NOSIP in syringe.
Setting [4] is: 10 μM iNOS peptide in the chamber, 150 μM rNOSIP in syringe, 25° C. (FIG. 3).

Broadly, the Kd is a measure of binding affinity in units of concentration. Turning to `NS(=O)(=O)c1ccc(CCNC(=O)CCCn2c(SCC(=O)c3ccc(Cl)c(Cl)c3)nc3ccsc3c2=O)cc1` [MCULE-3765839647, 4-(2-{[2-(3,4-dichlorophenyl)-2-oxoethyl]sulfanyl}-4-oxo-3H,4H-thieno[3,2-d]pyrimidin-3-yl)-N-[2-(4-sulfamoylphenyl)ethyl]butanamide], in assay [1], the “inhibition hierarchy of iNOS-NOSIP protein interaction” value (from here on “inhibition hierarchy”) is on record as “CC4>CC11>CC6>CC5>CC13>iNOS Peptide 2”, the kon was 0.807 M⁻¹ s⁻¹, the Kd came out at 704000 nM and the “inhibition of binding of NOSIP with iNOS ligand by small molecules” value (from here on “inhibition of binding of NOSIP”) was “inhibit the binding of NOSIP with iNOS ligand”. Also, in assay [2] (ITC 25° C.), the “ΔG” value was -7.5 kcal/mol, the “ΔH” value was -27.3 ± 1.11 kcal/mol and the “−TΔS” value worked out at 19.8 kcal/mol. In assay [2] (setting [3]), the Kd worked out at 524 ± 64.9 nM and the “N (Sites)” value worked out at 0.989. Also, in assay [2], the “Fold Change (KD)” value came to 0.956 and the “SM binding affinity with NOSIP, hierarchy” value (shortened to “SM binding affinity”) is “CC4>CC11>CC6>CC5>CC13>Peptide 2 (iNOS)”.
`CCCCN=c1scc(-c2ccc(O)c(C(N)=O)c2)n1N=Cc1cc(Br)c(O)c(OC)c1` [MCULE-8395438746, 5-(3-{[(3-bromo-4-hydroxy-5-methoxyphenyl)methylidene]amino}-2-(butylimino)-2,3-dihydro-1,3-thiazol-4-yl)-2-hydroxybenzamide]: in assay [1], the “inhibition hierarchy” value is listed as “CC4>CC11>CC6>CC5>CC13>iNOS Peptide 2”, the kon amounted to 0.835 M⁻¹ s⁻¹, the Kd was 543000 nM and the “inhibition of binding of NOSIP” value is recorded as “inhibit the binding of NOSIP with iNOS ligand”. Besides, in assay [2] (ITC 25° C.), the “ΔG” value is -8.55 kcal/mol, the “ΔH” value is -28.5 ± 0.694 kcal/mol and the “−TΔS” value is 20.0 kcal/mol. For the same compound, in assay [2] (setting [3]), the Kd came to 542 ± 54.9 nM and the “N (Sites)” value came out at 0.864. Besides, in assay [2], the “Fold Change (KD)” value was determined as 0.989 and the “SM binding affinity” value is listed as “CC4>CC11>CC6>CC5>CC13>Peptide 2 (iNOS)”.
Turning to `Cc1ccc(-c2nnn(CC(=O)N(Cc3ccco3)C(C(=O)NC(C)(C)C)c3ccc(O)cc3)n2)cc1` (stereo not drawn) [MCULE-8469877005, N-tert-butyl-2-{N-[(furan-2-yl)methyl]-2-[5-(4-methylphenyl)-2H-1,2,3,4-tetrazol-2-yl]acetamido}-2-(4-hydroxyphenyl) acetamide], in assay [1], the “inhibition hierarchy” value is reported as “CC4>CC11>CC6>CC5>CC13>iNOS Peptide 2”, the kon was determined as 0.822 M⁻¹ s⁻¹, the Kd was found to be 588000 nM and the “inhibition of binding of NOSIP” value was “inhibit the binding of NOSIP with iNOS ligand”. In assay [2] (ITC 25° C.), the “ΔG” value was -8.56 kcal/mol, the “ΔH” value is -29.3 ± 1.12 kcal/mol and the “−TΔS” value turned out to be 20.8 kcal/mol. In addition, in assay [2] (setting [3]), the Kd was 535 ± 80.8 nM and the “N (Sites)” value was 0.794. Further, in assay [2], the “Fold Change (KD)” value was determined as 0.976 and the “SM binding affinity” value is given as “CC4>CC11>CC6>CC5>CC13>Peptide 2 (iNOS)”.
Regarding `CC[C@H](C)[C@H](NC(=O)[C@H](CCCCN)NC(=O)[C@H](C)NC(=O)[C@H](CCC(=O)O)NC(=O)[C@H](CCCCN)NC(=O)[C@H](Cc1ccccc1)NC(=O)[C@H](CO)NC(=O)CNC(=O)[C@H](Cc1ccc(O)cc1)NC(=O)[C@H](Cc1ccc(O)cc1)NC(=O)[C@H](CCC(N)=O)NC(=O)[C@@H](N)CC(N)=O)C(=O)N[C@@H](CCC(=O)O)C(=O)N[C@@H](CCC(=O)O)C(=O)N[C@@H](Cc1c[nH]cn1)C(=O)N[C@@H](CC(C)C)C(=O)N[C@@H](C)C(=O)N[C@@H](CCCNC(=N)N)C(=O)O` [iNOS-Peptide2] (H-NQYYGSFKEAKIEEHLAR-OH; N-terminus and C-terminus assumed), the “Fold Change (KD)” value in assay [1] (SPR KD relative to rNOSIP + iNOS peptide2 = 1) stood at 1. Moreover, in assay [1], the “inhibition hierarchy” value is listed as “CC4>CC11>CC6>CC5>CC13>iNOS Peptide 2” and the kon was 536 M⁻¹ s⁻¹. The “inhibition of iNOS-NOSIP protein interaction by iNOS derived peptides” value (from here on “inhibition … by iNOS derived peptides”) in assay [1] (listed as PP2) is reported as “inhibited”. The “inhibition … by iNOS derived peptides” value in assay [1] (listed as PP-2) was “block significantly interaction between recombinant iNOS and NOSIP”. For the same compound, in assay [2] (setting [4]), the Kd came out at 493 ± 63.2 nM, the “ΔG” value was -8.61 kcal/mol, the “ΔH” value is -9.07 ± 0.251 kcal/mol and the “−TΔS” value was determined as 0.459 kcal/mol. Also, in assay [2] (ITC 25° C.), the “ΔG” value is -8.54 kcal/mol, the “ΔH” value is -8.44 ± 0.271 kcal/mol and the “−TΔS” value was -0.10 kcal/mol. The “N (Sites)” value in assay [2] (setting [3]) was 1.09. For the same compound, in assay [2], the “Fold Change (KD)” value is given as 1 and the “SM binding affinity” value is “CC4>CC11>CC6>CC5>CC13>Peptide 2 (iNOS)”.
With “PP1: iNOS derived peptide, SEQ ID No: 25 (TGDELIFATKQAWR; Human)”, the “inhibition … by iNOS derived peptides” value is “inhibited” in assay [1]; “less efficient in inhibiting interaction between iNOS and NOSIP” in assay [1] (listed as Peptide-1).
On to “PP3: iNOS derived peptide, SEQ ID No: 27 (GWKPKYGRFDVVPLVLQANGRDPELFEIPPDLVL; Human)”, for which the “inhibition … by iNOS derived peptides” value in assay [1] is “inhibited”; in assay [1] (listed as Peptide3), “less efficient in inhibiting interaction between iNOS and NOSIP”.
As to “PP4: iNOS derived peptide, SEQ ID No: 28 (NLQVFDARSCSTAREMFEHICRHVRYSTNNGNI; Human)”, the “inhibition … by iNOS derived peptides” value in assay [1] is “inhibited”; in assay [1] (listed as peptide-4), “less efficient in inhibiting interaction between iNOS and NOSIP”.
